Experimental findings from patent publication US8557984B2, “Imidazo [4, 5-C] quinoline derivatives as bromodomain inhibitors” (GlaxoSmithKline LLC, priority 2009, dated 2013) are described below.

For one series, the system named is IL-6. The series is described as follows: Measurement of LPS Induced IL-6 Secretion from Whole Blood. Format: cell-based. The settings on record: LPS 200 ng/ml, 24 hours, read-out: pIC50 (IL-6 levels) (converted). The procedure:
Activation of monocytic cells by agonists of toll-like receptors such as bacterial lipopolysaccharide (LPS) results in production of key inflammatory mediators including IL-6. Such pathways are widely considered to be central to the pathophysiology of a range of auto-immune and inflammatory disorders.
Compounds to be tested are diluted to give a range of appropriate concentrations of which 1 ul of the diluted stocks is added to a 96 well plate. Following addition of whole blood (130 ul) the plates are incubated at 37 degrees (5% CO2) for 30 min before the addition of 10 ul of 2.8 ug/ml LPS, diluted in complete RPMI 1640 (final concentration=200 ng/ml), to give a total volume of 140 ul per well. After further incubation for 24 hours at 37 degrees, 140 ul of PBS are added to each well. The plates are sealed, shaken for 10 minutes and then centrifuged (2500 rpm×10 min). 100 ul of the supernatant are removed and IL-6 levels assayed by immunoassay (typically by MesoScale Discovery technology) either immediately or following storage at −20 degrees. Concentration response curves for each compound was generated from the data and an IC50 value was calculated

Another series concerns heme cell lines. The series can be described thus: Oncology Cell Growth Assay, heme cell lines. Format: cell-based. To be noted: Homo sapiens, 72 hours, CellTiter-Glo, read-out: gIC50. As to the method: (§1) Human cell lines (n=33 comprising 15 heme cell lines, […] and 4 other cell lines) were cultured in RPMI-1640 containing 10% fetal bovine serum, 1000 viable cells per well were plated in 384-well black flat bottom polystyrene plates (Greiner #781086) in 48 μl of culture media. All plates were placed at 5% CO2, 37° C. overnight. The following day one plate was harvested with CellTiter-Glo (CTG, Promega #G7573) for a time equal to 0 (T0) measurement and compound (20 point titration from 14.7 uM to 7 pM) was added to the remaining plates. The final concentration of DMSO in all wells was 0.15%. Cells were incubated for 72 hours or the indicated time and each plate was developed with CellTiter-Glo reagent using a volume equivalent to the cell culture volume in the wells. Plates were shaken for approximately 2 minutes and chemiluminescent signal was read on the Analyst GT (Molecular Devices) or EnVision Plate Reader (Perkin Elmer).
(§2) Results were expressed as a percent of the T0 and plotted against the compound concentration. […] The Ymin-T0 value is determined by subtracting the T0 value (100%) from the Ymin value (%) determined from the fit of the concentration response curve. […]

Another series concerns Balb/c male mice. The series can be described thus: In Vivo Mouse Endotoxemia Model. The settings on record: 15 mg/kg LPS i.p., compound 10 mg/kg intravenously ninety minutes later; for Numbers of animals surviving at 4 days (summed across multiple repeat experiments): survivors/total. The source says: High doses of Endotoxin (bacterial lipopolysaccharide) administered to animals produce a profound shock syndrome including a strong inflammatory response, dysregulation of cardiovascular function, organ failure and ultimately mortality. This pattern of response is very similar to human sepsis and septic shock, where the body's response to a significant bacterial infection can be similarly life threatening.
To test the compounds for use in the invention groups of eight Balb/c male mice were given a lethal dose of 15 mg/kg LPS by intraperitoneal injection. Ninety minutes later, animals were dosed intravenously with vehicle (20% cyclodextrin 1% ethanol in apyrogen water) or compound (10 mg/kg). The survival of animals was monitored at 4 days.
Numbers of animals surviving at 4 days (summed across multiple repeat experiments)

For series [1], the system named is Human cell lines (n=33 comprising 15 heme cell lines, 14 breast cell lines and 4 other cell lines). The series can be described thus: Oncology Cell Growth Assay, all cell lines. Format: cell-based. The settings on record: across all cell lines, 72 hours, CellTiter-Glo, read-out: gIC50. The procedure:
as §1, §2
(Cellular ATP, detected with luciferase, serves as a proxy for viable cell number.)

Another series concerns TNFα. The series can be described thus: LPS Stimulated Whole Blood Measuring TNFα Levels Assay. Format: cell-based. The settings on record: LPS 200 ng/ml, 24 h, read-out: pIC50 (TNFα levels) (converted). As to the method: Activation of monocytic cells by agonists of toll-like receptors such as bacterial lipopolysaccharide (LPS) results in production of key inflammatory mediators including TNFα. Such pathways are widely considered to be central to the pathophysiology of a range of auto-immune and inflammatory disorders.
Compounds to be tested are diluted to give a range of appropriate concentrations and 1 ul of the dilution stocks is added to wells of a 96 plate. Following addition of whole blood (130 ul) the plates are incubated at 37 degrees (5% CO2) for 30 min before the addition of 10 ul of 2.8 ug/ml LPS, diluted in complete RPMI 1640 (final concentration=200 ng/ml), to give a total volume of […] per well. After further incubation for 24 h at 37 degrees, 140 ul of PBS are added to each well. The plates are sealed, shaken for 10 minutes and then centrifuged (2500 rpm×10 min). 100 ul of the supernatant are removed and TNFα levels assayed by immunoassay (typically by MesoScale Discovery technology) either immediately or following storage at −20 degrees. Dose response curves for each compound was generated from the data and an IC50 value was calculated.

The test system of a further series is breast cell lines. The series is described as follows: Oncology Cell Growth Assay, breast cell lines. Format: cell-based. The settings on record: Homo sapiens, 72 hours, CellTiter-Glo, read-out: gIC50. As to the method: as §1, §2

SMILES strings stand for the structures. Where only a bound is given, the exact number is not on record here.

For the molecule `COc1cc2c(cc1-c1c(C)noc1C)ncc1[nH]c(=O)n([C@@H](C)c3ccccn3)c12` (single isomer, unassigned) [Example 39], the IC50 with IL-6 is at most 3.16 µM.

As for `COc1cc2c(cc1-c1c(C)noc1C)ncc1nc(C3CCOCC3)n([C@H](C)c3ccccn3)c12` (single isomer, unassigned) [Example 45], in the series on IL-6, the IC50 is at most 3.16 µM.

Take `COc1cc2c(cc1-c1c(C)noc1C)ncc1[nH]c(=O)n([C@H](C)c3ccccn3)c12` [Example 11, 7-(3,5-dimethyl-4-isoxazolyl)-8-(methoxy)-1-[(1R)-1-(2-pyridinyl)ethyl]-1,3-dihydro-2H-imidazo[4,5-c]quinolin-2-one]: the IC50 in the series on heme cell lines is 0.118 to 1.04 µM; in series [1] it was 0.118 to 11.1 µM; with TNFα, at most 3.16 µM; in the series on breast cell lines, 0.432 to 11.1 µM; in the series on IL-6, at most 3.16 µM. Further, the “Animals surviving at 4 days, percent” value with Balb/c male mice stood at 83%. Besides, in the series with Balb/c male mice, the “Numbers of animals surviving at 4 days (summed across multiple repeat experiments)” value is reported as 55/66.

`COc1cc2c(cc1-c1c(C)noc1C)ncc1[nH]c(=O)n(-c3ccccc3OC(F)(F)F)c12` [Example 12, 7-(3,5-dimethyl-4-isoxazolyl)-8-(methoxy)-1-{2-[(trifluoromethyl)oxy]phenyl}-1,3-dihydro-2H-imidazo[4,5-c]quinolin-2-one]: in the series on TNFα, the IC50 is at most 3.16 µM.

Consider `COc1cc2c(cc1-c1c(C)noc1C)ncc1[nH]c(=O)n(Cc3ccccc3)c12` [Example 15], for which the IC50 in the series with TNFα is at most 3.16 µM.

Take `Cc1noc(C)c1-c1ccc2c(c1)ncc1ncn(-c3ccccc3C(C)(C)C)c12` [Example 18, 1-[2-(tert-butyl)phenyl]-7-(3,5-dimethyl-4-isoxazolyl)-1H-imidazo[4,5-c]quinoline]: the melting point (usually the temperature, or range, at which the solid turns liquid) worked out at 216 °C.

Turning to `COc1cc2c(cc1-c1c(C)noc1C)ncc1nc(C3CCOCC3)n(Cc3ccccn3)c12` [Example 27, 7-(3,5-dimethyl-4-isoxazolyl)-8-(methoxy)-1-(2-pyridinylmethyl)-2-(tetrahydro-2H-pyran-4-yl)-1H-imidazo[4,5-c]quinoline], in the series with TNFα, the IC50 is at most 3.16 µM.

Consider `COc1cc2c(cc1-c1c(C)noc1C)ncc1nc(C3CCOCC3)n([C@H](C)c3ccccc3)c12` [Example 31, 7-(3,5-dimethyl-4-isoxazolyl)-8-(methoxy)-1-[(1R)-1-phenylethyl]-2-(tetrahydro-2H-pyran-4-yl)-1H-imidazo[4,5-c]quinoline], for which, in the series with Balb/c male mice, the “Animals surviving at 4 days, percent” value was determined as 38% and the “Numbers of animals surviving at 4 days (summed across multiple repeat experiments)” value was 9/24. For the same molecule, the IC50 in the series on TNFα is at most 3.16 µM.

For the molecule `COCCn1c(=O)n([C@H](C)c2ccccn2)c2c3cc(OC)c(-c4c(C)noc4C)cc3ncc21` [Example 37, 7-(3,5-dimethyl-4-isoxazolyl)-8-(methyloxy)-3-[2-(methyloxy)ethyl]-1-[(1R)-1-(2-pyridinyl)ethyl]-1,3-dihydro-2H-imidazo[4,5-c]quinolin-2-one], the IC50 in the series with IL-6 is at most 3.16 µM.

As to `COc1cc2c(cc1-c1c(C)noc1C)ncc1[nH]c(=O)n(C(C)c3cnn(C)c3)c12` (stereo not drawn) [Example 40, 7-(3,5-dimethyl-4-isoxazolyl)-8-(methyloxy)-1-[1-(1-methyl-1H-pyrazol-4-yl)ethyl]-1,3-dihydro-2H-imidazo[4,5-c]quinolin-2-one], the IC50 in the series on IL-6 is at most 3.16 µM.

With `COCc1nc2cnc3cc(-c4c(C)noc4C)c(OC)cc3c2n1C(C)c1ccccn1` (stereo not drawn) [Example 51, 7-(3,5-dimethyl-4-isoxazolyl)-8-(methyloxy)-2-[(methyloxy)methyl]-1-[1-(2-pyridinyl)ethyl]-1H-imidazo[4,5-c]quinoline], the IC50 in the series on IL-6 is at most 3.16 µM.

For `COc1cc2c(cc1-c1c(C)n[nH]c1C)ncc1nc(C3CCOCC3)n([C@H](C)c3ccccc3)c12` [Example 108, 7-(3,5-dimethyl-1H-pyrazol-4-yl)-8-(methyloxy)-1-[(1R)-1-phenylethyl]-2-(tetrahydro-2H-pyran-4-yl)-1H-imidazo[4,5-c]quinoline], the IC50 in the series on TNFα was at most 3.16 µM.

As for `COc1nc2c(cc1-c1c(C)noc1C)ncc1[nH]c(=O)n(-c3ccccc3OC(F)(F)F)c12` [Example 126, 7-(3,5-dimethyl-4-isoxazolyl)-8-(methyloxy)-1-{2-[(trifluoromethyl)oxy]phenyl}-1,3-dihydro-2H-imidazo[4,5-c]-1,5-naphthyridin-2-one], the IC50 with TNFα is at most 3.16 µM.
